Experimental data from US10730872B2, “Pesticidally active heterocyclic derivatives with sulphur containing sustitutents” (SYNGENTA PARTICIPATIONS AG, priority 2015, dated 2020).

How the values were obtained:
Format in all cases: in vivo
Euschistus heros = Euschistus heros (Neotropical Brown Stink Bug); conditions: 120 h, application rate of 200 ppm, sprayed soybean leaves, N2 nymphs, 5 days after infestation, read-out: effect in at least one of the two categories (mortality or growth inhibition)
Method: Soybean leaves on agar in 24-well microtiter plates were sprayed with aqueous test solutions prepared from 10,000 ppm DMSO stock solutions. After drying the leaves were infested with N2 nymphs. The samples were assessed for mortality and growth inhibition in comparison to untreated samples 5 days after infestation.

Myzus persicae [1] = test: Myzus persicae (Green Peach Aphid). Systemic Activity; conditions: 144 h, test rate of 24 ppm, roots of infested pea seedlings in test solution, 6 days
Method: Roots of pea seedlings infested with an aphid population of mixed ages were placed directly into aqueous test solutions prepared from 10,000 DMSO stock solutions. The samples were assessed for mortality 6 days after placing seedlings into test solutions.

Spodoptera littoralis [2] = test: Spodoptera littoralis (Egyptian Cotton Leaf Worm), sprayed cotton leaf discs; conditions: foliar, 72 h, application rate of 200 ppm, L1 larvae, 3 days after infestation
Method: Cotton leaf discs were placed onto agar in 24-well microtiter plates and sprayed with aqueous test solutions prepared from 10,000 ppm DMSO stock solutions. After drying the leaf discs were infested with five L1 larvae. The samples were assessed for mortality, anti-feeding effect, and growth inhibition in comparison to untreated samples 3 days after infestation. Control of Spodoptera littoralis by a test sample is given when at least one of the categories mortality, anti-feedant effect, and growth inhibition is higher than the untreated sample.

Plutella xylostella = Plutella xylostella (Diamond Back Moth); conditions: 120 h, application rate of 200 ppm, artificial diet, L2 larvae, 5 days after infestation, read-out: effect in at least one of the two categories (mortality or growth inhibition)
Method: 24-well microtiter plates with artificial diet were treated with aqueous test solutions prepared from 10,000 ppm DMSO stock solutions by pipetting. After drying, the plates were infested with L2 larvae (10 to 15 per well). The samples were assessed for mortality and growth inhibition in comparison to untreated samples 5 days after infestation.

Bemisia tabaci = Bemisia tabaci (Cotton White Fly): Feeding/Contact Activity; conditions: foliar, 144 h, application rate of 200 ppm, sprayed cotton leaf discs, adult white flies, 6 days after incubation
Method: Cotton leaf discs were placed on agar in 24-well microtiter plates and sprayed with aqueous test solutions prepared from 10,000 ppm DMSO stock solutions. After drying the leaf discs were infested with adult white flies. The samples were checked for mortality 6 days after incubation.

Diabrotica balteata = Diabrotica balteata (Corn Root Worm); conditions: 96 h, application rate of 200 ppm, sprayed maize sprouts, L2 larvae, 4 days after infestation, read-out: effect in at least one of the two categories (mortality or growth inhibition)
Method: Maize sprouts placed onto an agar layer in 24-well microtiter plates were treated with aqueous test solutions prepared from 10,000 ppm DMSO stock solutions by spraying. After drying, the plates were infested with L2 larvae (6 to 10 per well). The samples were assessed for mortality and growth inhibition in comparison to untreated samples 4 days after infestation.

Myzus persicae [3] = test: Myzus persicae (Green Peach Aphid): Feeding/Contact Activity; conditions: foliar, 144 h, application rate of 200 ppm, sprayed sunflower leaf discs, aphid population of mixed ages, 6 days after infestation
Method: Sunflower leaf discs were placed onto agar in a 24-well microtiter plate and sprayed with aqueous test solutions prepared from 10,000 ppm DMSO stock solutions. After drying, the leaf discs were infested with an aphid population of mixed ages. The samples were assessed for mortality 6 days after infestation.

Spodoptera littoralis [4] = test: Spodoptera littoralis (Egyptian Cotton Leaf Worm), uptake by lettuce roots from agar; conditions: 144 h, test rate of 12.5 ppm, mixed with agar, absorbed by lettuce roots, Spodoptera eggs, 6 days after infestation, read-out: effect in at least one of the three categories (mortality, anti-feeding, or growth inhibition)
Description: Test compounds were applied by pipette from 10,000 ppm DMSO stock solutions into 24-well plates and mixed with agar. Lettuce seeds were placed onto the agar and the multi well plate was closed by another plate which contained also agar. After 7 days the compound was absorbed by the roots and the lettuce grew into the lid plate. The lettuce leaves were then cut off into the lid plate. Spodoptera eggs were pipetted through a plastic stencil onto a humid gel blotting paper and the lid plate was closed with it. The samples were assessed for mortality, anti-feedant effect and growth inhibition in comparison to untreated samples 6 days after infestation.

CCn1c(C(F)(F)F)cc2nc(-c3ncc(N(C)N(C)C(=O)C4CC4)cc3S(=O)(=O)CC)n(C)c2c1=O [Compound A22, N′-[6-[5-ethyl-3-methyl-4-oxo-6-(trifluoromethyl)imidazo[4,5-c]pyridin-2-yl]-5-ethylsulfonyl-3-pyridyl]-N,N′-dimethyl-cyclopropanecarbohydrazide]
≥ 80%: percent effect (mortality or growth inhibition) at 200 ppm (Euschistus heros) | mortality at 24 ppm (Myzus persicae [1]) | percent control (mortality, anti-feeding effect or growth inhibition) at 200 ppm (Spodoptera littoralis [2]) | percent effect (mortality or growth inhibition) at 200 ppm (Plutella xylostella)

CCn1c(C(F)(F)F)cc2nc(-c3ncc(N(C)S(=O)(=O)C4CC4)cc3S(=O)(=O)CC)n(C)c2c1=O [Compound A37, N-[6-[5-ethyl-3-methyl-4-oxo-6-(trifluoromethyl)imidazo[4,5-c]pyridin-2-yl]-5-ethylsulfonyl-3-pyridyl]-N-methyl-cyclopropanesulfonamide]
≥ 80%: percent effect (mortality or growth inhibition) at 200 ppm (Euschistus heros) | mortality at 200 ppm (Bemisia tabaci) | percent control (mortality, anti-feeding effect or growth inhibition) at 200 ppm (Spodoptera littoralis [2]) | effect mortality or growth inhibition at 200 ppm (Diabrotica balteata) | percent effect (mortality or growth inhibition) at 200 ppm (Plutella xylostella)

CCS(=O)(=O)c1cc(C)c(N)nc1-c1nc2cc(C(F)(F)F)n(C3CC3)c(=O)c2n1C [Compound A49, 2-(6-amino-5-methyl-3-ethylsulfonyl-2-pyridyl)-5-cyclopropyl-3-methyl-6-(trifluoromethyl)imidazo[4,5-c]pyridin-4-one]
≥ 80%: mortality at 200 ppm (Bemisia tabaci) | mortality at 24 ppm (Myzus persicae [1]) | percent control (mortality, anti-feeding effect or growth inhibition) at 200 ppm (Spodoptera littoralis [2]) | mortality at 200 ppm (Myzus persicae [3]) | effect mortality or growth inhibition at 200 ppm (Diabrotica balteata) | percent effect (mortality or growth inhibition) at 200 ppm (Plutella xylostella)

CCn1c(C(F)(F)F)cc2nc(-c3nc(N)c(C#N)cc3S(=O)(=O)CC)n(C)c2c1=O [Compound A72]
≥ 80%: percent effect (mortality or growth inhibition) at 200 ppm (Euschistus heros) | mortality at 24 ppm (Myzus persicae [1]) | percent control (mortality, anti-feeding effect or growth inhibition) at 200 ppm (Spodoptera littoralis [2]) | percent effect (mortality or growth inhibition) at 200 ppm (Plutella xylostella)

CCS(=O)(=O)c1ccc(NC(=O)OC(C)(C)C)nc1-c1nc2cc(C(F)(F)F)n(C3CC3)c(=O)c2n1C [Compound A63, Tert-butyl N-[6-[5-cyclopropyl-3-methyl-4-oxo-6-(trifluoromethyl)imidazo[4,5-c]pyridin-2-yl]-5-ethylsulfonyl-2-pyridyl]carbamate]
≥ 80%: mortality at 200 ppm (Bemisia tabaci) | percent control (mortality, anti-feeding effect or growth inhibition) at 200 ppm (Spodoptera littoralis [2]) | effect mortality or growth inhibition at 200 ppm (Diabrotica balteata) | percent effect (mortality or growth inhibition) at 200 ppm (Plutella xylostella)

CCS(=O)(=O)c1ccc(NO)nc1-c1nc2cc(C(F)(F)F)n(C3CC3)c(=O)c2n1C [Compound A47, 5-cyclopropyl-2-[3-ethylsulfonyl-6-(hydroxyamino)-2-pyridyl]-3-methyl-6-(trifluoromethyl)imidazo[4,5-c]pyridin-4-one]
≥ 80%: percent effect (mortality or growth inhibition) at 200 ppm (Euschistus heros) | mortality at 200 ppm (Bemisia tabaci) | mortality at 24 ppm (Myzus persicae [1]) | percent control (mortality, anti-feeding effect or growth inhibition) at 200 ppm (Spodoptera littoralis [2]) | mortality at 200 ppm (Myzus persicae [3]) | effect mortality or growth inhibition at 200 ppm (Diabrotica balteata) | percent effect (mortality or growth inhibition) at 200 ppm (Plutella xylostella)

CCn1c(C(F)(F)F)cc2nc(-c3ncc(NC(=O)C4CC4)cc3S(=O)(=O)CC)n(C)c2c1=O [Compound A7, N-[6-[5-ethyl-3-methyl-4-oxo-6-(trifluoromethyl)imidazo[4,5-c]pyridin-2-yl]-5-ethylsulfonyl-3-pyridyl]cyclopropanecarboxamide]
≥ 80%: percent effect (mortality or growth inhibition) at 200 ppm (Euschistus heros) | mortality at 200 ppm (Bemisia tabaci) | mortality at 24 ppm (Myzus persicae [1]) | percent control (mortality, anti-feeding effect or growth inhibition) at 200 ppm (Spodoptera littoralis [2]) | mortality at 200 ppm (Myzus persicae [3]) | percent effect (mortality or growth inhibition) at 200 ppm (Plutella xylostella)

CCn1c(C(F)(F)F)cc2nc(-c3nc(Cl)c(N)cc3S(=O)(=O)CC)n(C)c2c1=O [Compound A53, 2-(5-amino-6-chloro-3-ethylsulfonyl-2-pyridyl)-5-ethyl-3-methyl-6-(trifluoromethyl)imidazo[4,5-c]pyridin-4-one]
≥ 80%: percent effect (mortality, anti-feeding or growth inhibition) at 12.5 ppm (Spodoptera littoralis [4]) | percent control (mortality, anti-feeding effect or growth inhibition) at 200 ppm (Spodoptera littoralis [2]) | mortality at 200 ppm (Myzus persicae [3]) | effect mortality or growth inhibition at 200 ppm (Diabrotica balteata) | percent effect (mortality or growth inhibition) at 200 ppm (Plutella xylostella)

CCn1c(C(F)(F)F)cc2nc(-c3ncc(N/C=N/OC)cc3S(=O)(=O)CC)n(C)c2c1=O [Compound A26, N-[6-[5-ethyl-3-methyl-4-oxo-6-(trifluoromethyl)imidazo[4,5-c]pyridin-2-yl]-5-ethylsulfonyl-3-pyridyl]-N′-methoxy-formamidine]
≥ 80%: percent effect (mortality or growth inhibition) at 200 ppm (Euschistus heros) | percent effect (mortality, anti-feeding or growth inhibition) at 12.5 ppm (Spodoptera littoralis [4]) | percent control (mortality, anti-feeding effect or growth inhibition) at 200 ppm (Spodoptera littoralis [2]) | effect mortality or growth inhibition at 200 ppm (Diabrotica balteata) | percent effect (mortality or growth inhibition) at 200 ppm (Plutella xylostella)

CCn1c(C(F)(F)F)cc2nc(-c3ncc(C(=O)NCC#N)cc3S(=O)(=O)CC)n(C)c2c1=O [Compound A28, N-(cyanomethyl)-6-[5-ethyl-3-methyl-4-oxo-6-(trifluoromethyl)imidazo[4,5-c]pyridin-2-yl]-5-ethylsulfonyl-pyridine-3-carboxamide]
≥ 80%: percent effect (mortality or growth inhibition) at 200 ppm (Euschistus heros) | mortality at 24 ppm (Myzus persicae [1]) | mortality at 200 ppm (Myzus persicae [3]) | percent effect (mortality or growth inhibition) at 200 ppm (Plutella xylostella)

CCn1c(C(F)(F)F)cc2nc(-c3ncc(NC(=O)C4(C#N)CC4)cc3S(=O)(=O)CC)n(C)c2c1=O [Compound A55, 1-cyano-N-[6-[5-ethyl-3-methyl-4-oxo-6-(trifluoromethyl)imidazo[4,5-c]pyridin-2-yl]-5-ethylsulfonyl-3-pyridyl]cyclopropanecarboxamide]
≥ 80%: mortality at 24 ppm (Myzus persicae [1]) | percent control (mortality, anti-feeding effect or growth inhibition) at 200 ppm (Spodoptera littoralis [2]) | mortality at 200 ppm (Myzus persicae [3]) | percent effect (mortality or growth inhibition) at 200 ppm (Plutella xylostella)

CCn1c(C(F)(F)F)cc2nc(-c3ncc(C(=O)N(C)C4CC4)cc3S(=O)(=O)CC)n(C)c2c1=O [Compound A17, N-cyclopropyl-6-[5-ethyl-3-methyl-4-oxo-6-(trifluoromethyl)imidazo[4,5-c]pyridin-2-yl]-5-ethylsulfonyl-N-methyl-pyridine-3-carboxamide]
≥ 80%: percent effect (mortality or growth inhibition) at 200 ppm (Euschistus heros) | mortality at 24 ppm (Myzus persicae [1]) | percent effect (mortality or growth inhibition) at 200 ppm (Plutella xylostella)

CCn1c(C(F)(F)F)cc2nc(-c3nc(C(=O)N(C)C4CC4)ccc3S(=O)(=O)CC)n(C)c2c1=O [Compound A18, N-cyclopropyl-6-[5-ethyl-3-methyl-4-oxo-6-(trifluoromethyl)imidazo[4,5-c]pyridin-2-yl]-5-ethylsulfonyl-N-methyl-pyridine-2-carboxamide]
≥ 80%: mortality at 200 ppm (Bemisia tabaci) | mortality at 24 ppm (Myzus persicae [1]) | percent control (mortality, anti-feeding effect or growth inhibition) at 200 ppm (Spodoptera littoralis [2]) | mortality at 200 ppm (Myzus persicae [3]) | percent effect (mortality or growth inhibition) at 200 ppm (Plutella xylostella)
